Patent US4898859A, “2-Oxa-isocephem compounds and compositions containing same” (Otsuka Pharmaceutical Co., Ltd., priority 1987, dated 1990)
Values after ≈ are worked out from the molar mass of the structure shown. Structures can show the parent of a compound that is named as a salt.

Experiments:
Type in all cases: cell-based
M. morganii ATCC-25830 = assay: antimicrobial activity in vitro, MIC by agar plate dilution method, M. morganii ATCC-25830; conditions: Morganella morganii, ATCC25830, inoculum 1×10^6 cells/ml, read-out: minimal inhibitory concentration (MIC)
Description: (§1) In order to investigate the in vitro activity of the under-mentioned compounds against various bacteria, the minimal inhibitory concentration (MIC) values were determined by the agar plate dilution method [see Chemotherapy, 22, 1126-1128 (1974)].
(§2) Each test inoculum was adjusted to 1×10^6 cells/ml (O.D., 600 mμ: 0.07-0.16).

S. marcescens IFO-12648 = assay: antimicrobial activity in vitro, MIC by agar plate dilution method, S. marcescens IFO-12648; conditions: Serratia marcescens, IFO12648, inoculum 1×10^6 cells/ml, read-out: minimal inhibitory concentration (MIC)
Description: as §1, §2

S. aureus FDA-209-p = assay: antimicrobial activity in vitro, MIC by agar plate dilution method, S. aureus FDA-209-p; conditions: Staphylococcus aureus, FDA209, inoculum 1×10^6 cells/ml, read-out: minimal inhibitory concentration (MIC)
Description: as §1, §2

K. pneumoniae NCTC-9632 = assay: antimicrobial activity in vitro, MIC by agar plate dilution method, K. pneumoniae NCTC-9632; conditions: Klebsiella pneumoniae, NCTC9632, inoculum 1×10^6 cells/ml, read-out: minimal inhibitory concentration (MIC)
Description: as §1, §2

E. coli NIHJ = assay: antimicrobial activity in vitro, MIC by agar plate dilution method, E. coli NIHJ; conditions: Escherichia coli, inoculum 1×10^6 cells/ml, read-out: minimal inhibitory concentration (MIC)
Description: as §1, §2

P. mirabilis 1287 = assay: antimicrobial activity in vitro, MIC by agar plate dilution method, P. mirabilis 1287; conditions: Proteus mirabilis, inoculum 1×10^6 cells/ml, read-out: minimal inhibitory concentration (MIC)
Description: as §1, §2

E. coli No. 29 = assay: antimicrobial activity in vitro, MIC by agar plate dilution method, E. coli No. 29; conditions: Escherichia coli, inoculum 1×10^6 cells/ml, read-out: minimal inhibitory concentration (MIC)
Description: as §1, §2

P. aeruginosa NCTC-10490 = assay: antimicrobial activity in vitro, MIC by agar plate dilution method, P. aeruginosa NCTC-10490; conditions: Pseudomonas aeruginosa, NCTC10490, inoculum 1×10^6 cells/ml, read-out: minimal inhibitory concentration (MIC)
Description: as §1, §2

| MIC (M. morganii ATCC-25830) | MIC (S. marcescens IFO-12648) | MIC (S. aureus FDA-209-p) | MIC (K. pneumoniae NCTC-9632) | MIC (E. coli NIHJ) | MIC (P. mirabilis 1287) | MIC (E. coli No. 29) | MIC (P. aeruginosa NCTC-10490) | Compound |
| --- | --- | --- | --- | --- | --- | --- | --- | --- |
| 0.1 mg/L (≈ 0.149 µM) | 0.78 mg/L (≈ 1.16 µM) | 0.2 mg/L (≈ 0.298 µM) | 0.2 mg/L (≈ 0.298 µM) | 0.2 mg/L (≈ 0.298 µM) | 0.39 mg/L (≈ 0.581 µM) | 0.1 mg/L (≈ 0.149 µM) | 0.78 mg/L (≈ 1.16 µM) | Nc1nc(/C(=N/OC2CCCC2)C(=O)N[C@@H]2C(=O)N3C(C(=O)[O-])=C(CSc4cc[n+](CC(=O)N5CCNCC5)cc4)OC[C@H]23)cs1 [No. 8, (6S,7S)-7-[2-(2-Aminothiazol-4-yl)-2-cyclopentyloxyiminoacetamido]-3-[[1-(1-piperazinylcarbonylmethyl)-4-pyridinio]thiomethyl]-Δ^3 -O-2-isocephem-4-carboxylate (syn-isomer)] |
| 0.05 mg/L (≈ 0.0843 µM) | 0.78 mg/L (≈ 1.32 µM) | 0.1 mg/L (≈ 0.169 µM) | 0.39 mg/L (≈ 0.658 µM) | 0.2 mg/L (≈ 0.337 µM) | 0.2 mg/L (≈ 0.337 µM) | 0.1 mg/L (≈ 0.169 µM) | 1.56 mg/L (≈ 2.63 µM) | Nc1nc(/C(=N/OC2CCCC2)C(=O)N[C@@H]2C(=O)N3C(C(=O)[O-])=C(CSc4cc[n+](CCl)cc4)OC[C@H]23)cs1 [No. 11, (6S,7S)-7-[2-(2-Aminothiazol-4-yl)-2-cyclopentyloxyiminoacetamido]-3-[(1-chloromethyl-4-pyridinio)thiomethyl]-Δ^3 -O-2-isocephem-4-carboxylate (syn-isomer)] |
| 0.05 mg/L | 0.78 mg/L | 0.1 mg/L | 0.39 mg/L | 0.2 mg/L | 0.1 mg/L | 0.1 mg/L | 0.78 mg/L | CCC(=O)C[n+]1ccc(SCC2=C(C(=O)[O-])N3C(=O)[C@@H](NC(=O)/C(=N\OC4CCCC4)c4csc(N)n4)[C@H]3CO2)cc1 [No. 7, (6S,7S)-7-[2-(2-Aminothiazol-4-yl)-2-cyclopentyloxyiminoacetamido]-3-[(1-propanoylmethyl-4-pyridinio)thiomethyl] -Δ^3 -O-2-isocephem-4-carboxylic acid sulfate (syn-isomer)] |
| 0.05 mg/L | 1.56 mg/L | 0.1 mg/L | 0.39 mg/L | 0.2 mg/L | 0.2 mg/L | 0.1 mg/L | 1.56 mg/L | CN(C)C(=O)C[n+]1ccc(SCC2=C(C(=O)[O-])N3C(=O)[C@@H](NC(=O)/C(=N\OC4CCCC4)c4csc(N)n4)[C@H]3CO2)cc1 [No. 4, (6S,7S)-7-[2-(2-Aminothiazol-4-yl)-2-cyclopentyloxyiminoacetamido]-3-[(1-N,N-dimethylcarbamoylmethyl4-pyridinio)thiomethyl]-Δ^3 -O-2-isocephem-4-carboxylic acid sulfate (syn-isomer)] |
| ≤ 0.025 mg/L | 0.1 mg/L (≈ 0.183 µM) | 0.2 mg/L (≈ 0.365 µM) | ≤ 0.025 mg/L | ≤ 0.025 mg/L | ≤ 0.025 mg/L | ≤ 0.025 mg/L | 12.5 mg/L (≈ 22.8 µM) | C[n+]1ccc(SCC2=C(C(=O)[O-])N3C(=O)[C@@H](NC(=O)/C(=N\OCC(N)=O)c4csc(N)n4)[C@H]3CO2)cc1 [No. 5, (6S,7S)-7-[2-(2-Aminothiazol-4-yl)-2-carbamoylmethoxyiminoacetamido]-3-[(1-methyl-4-pyridinio)thiomethyl]-Δ^3 -O-2-isocephem-4-carboxylate (syn-isomer)] |
| ≤ 0.025 mg/L | 0.1 mg/L (≈ 0.186 µM) | 0.2 mg/L (≈ 0.373 µM) | ≤ 0.025 mg/L | ≤ 0.025 mg/L | ≤ 0.025 mg/L | ≤ 0.025 mg/L | 1.56 mg/L (≈ 2.91 µM) | CO/N=C(\C(=O)N[C@@H]1C(=O)N2C(C(=O)[O-])=C(CSc3cc[n+](CCF)cc3)OC[C@H]12)c1csc(N)n1 [No. 14, (6S,7S)-7-[2-(2-Aminothiazol-4-yl)-2-methoxyiminoacetamido]-3-[[1-(2-fluoroethyl)-4-pyridinio]thiomethyl]-Δ^3 -O-2-isocephem-4-carboxylate (syn-isomer)] |
| 0.05 mg/L | 0.78 mg/L | 0.1 mg/L | 0.39 mg/L | 0.2 mg/L | 0.2 mg/L | 0.1 mg/L | 0.78 mg/L | Nc1nc(/C(=N/OC2CCCC2)C(=O)N[C@@H]2C(=O)N3C(C(=O)[O-])=C(CSc4cc[n+](CC(=O)N5CCCC5)cc4)OC[C@H]23)cs1 [No. 3, (6S,7S)-7-[2-(2-Aminothiazol-4-yl)-2-cyclopentyloxyiminoacetamido]-3-[[1-(1-pyrrolidinylcarbonylmethyl)-4-pyridinio]thiomethyl]-Δ^3 -O-2-isocephem-4-carboxylic acid sulfate (syn-isomer)] |
| 0.05 mg/L (≈ 0.0835 µM) | 0.78 mg/L (≈ 1.3 µM) | 0.05 mg/L (≈ 0.0835 µM) | 0.2 mg/L (≈ 0.334 µM) | 0.1 mg/L (≈ 0.167 µM) | 0.1 mg/L (≈ 0.167 µM) | 0.05 mg/L (≈ 0.0835 µM) | 0.39 mg/L (≈ 0.651 µM) | Nc1nc(/C(=N/OC2CCCC2)C(=O)N[C@@H]2C(=O)N3C(C(=O)[O-])=C(CSc4cc[n+](CC5CC5)cc4)OC[C@H]23)cs1 [No. 12, (6S,7S)-7-[2-(2-Aminothiazol-4-yl)-2-cyclopentyloxyiminoacetamido]-3-[(1-cyclopropylmethyl-4-pyridinio)thiomethyl]-Δ^3 -O-2- -isocephem-4-carboxylic acid ditrifluoroacetate (syn-isomer)] |
| 0.05 mg/L (≈ 0.0821 µM) | 0.1 mg/L (≈ 0.164 µM) | 0.05 mg/L (≈ 0.0821 µM) | 0.05 mg/L (≈ 0.0821 µM) | 0.05 mg/L (≈ 0.0821 µM) | 0.05 mg/L (≈ 0.0821 µM) | ≤ 0.025 mg/L | 1.56 mg/L (≈ 2.56 µM) | CO/N=C(\C(=O)N[C@@H]1C(=O)N2C(C(=O)[O-])=C(CSc3cc[n+](CC(=O)c4ccccc4)cc3)OC[C@H]12)c1csc(N)n1 [No. 1, (6S,7S)-7-[2-(2-Aminothiazol-4-yl)-2-methoxyiminoacetamido]-3-[(1-benzoylmethyl-4-pyridinio)thiomethyl]-Δ^3 -O-2-isocephem-4-carboxylate (syn-isomer)] |
| 0.05 mg/L (≈ 0.0809 µM) | 1.56 mg/L (≈ 2.53 µM) | 0.39 mg/L (≈ 0.631 µM) | 0.39 mg/L (≈ 0.631 µM) | 0.2 mg/L (≈ 0.324 µM) | 0.2 mg/L (≈ 0.324 µM) | 0.1 mg/L (≈ 0.162 µM) | 3.13 mg/L (≈ 5.07 µM) | Nc1nc(/C(=N/OC2CCCC2)C(=O)N[C@@H]2C(=O)N3C(C(=O)[O-])=C(CSc4cc[n+](CC(=O)NO)cc4)OC[C@H]23)cs1 [No. 9, (6S,7S)-7-[2-(2-Aminothiazol-4-yl)-2-cyclopentyloxyiminoacetamido]-3-[(1-hydroxyaminocarbonylmethyl-4-pyridinio)thiomethyl]-Δ^3 -O-2-isocephem-4-carboxylate (syn-isomer)] |
| 0.05 mg/L (≈ 0.0847 µM) | 1.56 mg/L (≈ 2.64 µM) | 0.1 mg/L (≈ 0.169 µM) | 0.39 mg/L (≈ 0.66 µM) | 0.2 mg/L (≈ 0.339 µM) | 0.2 mg/L (≈ 0.339 µM) | 0.1 mg/L (≈ 0.169 µM) | 0.78 mg/L (≈ 1.32 µM) | Nc1nc(/C(=N/OC2CCCC2)C(=O)N[C@@H]2C(=O)N3C(C(=O)[O-])=C(CSc4cc[n+](CCF)cc4)OC[C@H]23)cs1 [No. 13, (6S,7S)-7-[2-(2-Aminothiazol-4-yl)-2-cyclopentyloxyiminoacetamido]-3-[[1-(2-fluoroethyl)-4-pyridinio]thiomethyl]-Δ^3 -O-2-isocephem-4-carboxylate (syn-isomer)] |
| ≤ 0.025 mg/L | 0.1 mg/L (≈ 0.162 µM) | 0.2 mg/L (≈ 0.324 µM) | ≤ 0.025 mg/L | ≤ 0.025 mg/L | ≤ 0.025 mg/L | ≤ 0.025 mg/L | 6.25 mg/L (≈ 10.1 µM) | CO/N=C(\C(=O)N[C@@H]1C(=O)N2C(C(=O)[O-])=C(CSc3cc[n+](CC(=O)N4CCOCC4)cc3)OC[C@H]12)c1csc(N)n1 [No. 10, (6S,7S)-7-[2-(2-Aminothiazol-4-yl)-2-methoxyiminoacetamido]-3-[(1-morpholinocarbonylmethyl-4pyridinio)thiomethyl]-Δ^3 -O-2-isocephem-4-carboxylate (syn-isomer)] |
| ≤ 0.025 mg/L | 0.2 mg/L | 0.2 mg/L | ≤ 0.025 mg/L | ≤ 0.025 mg/L | ≤ 0.025 mg/L | ≤ 0.025 mg/L | 3.13 mg/L | CO/N=C(\C(=O)N[C@@H]1C(=O)N2C(C(=O)[O-])=C(CSc3cc[n+](CC(=O)N(C)C)cc3)OC[C@H]12)c1csc(N)n1 [No. 6, (6S,7S)-7-[2-(2-Aminothiazol-4-yl)-2-methoxyiminoacetamido]-3-[(1-N,N-dimethylcarbamoylmethyl-4-pyridinio)thiomethyl]-Δ^3 -O-2-isocephem-4-carboxylic acid sulfate (syn-isomer)] |
| ≤ 0.025 mg/L | 0.1 mg/L (≈ 0.166 µM) | 0.2 mg/L (≈ 0.332 µM) | ≤ 0.025 mg/L | ≤ 0.025 mg/L | ≤ 0.025 mg/L | ≤ 0.025 mg/L | 1.56 mg/L (≈ 2.59 µM) | CO/N=C(\C(=O)N[C@@H]1C(=O)N2C(C(=O)[O-])=C(CSc3cc[n+](CC(=O)N4CCCC4)cc3)OC[C@H]12)c1csc(N)n1 [No. 2, (6S,7S)-7-[2-(2-Aminothiazol-4-yl)-2-methoxyiminoacetamido]-3-[[1-(1-pyrrolidinylcarbonylmethyl)-4pyridinio]thiomethyl]-Δ^3 -O-2-isocephem-4-carboxylate (syn-isomer)] |
